Entries after “also recorded” stand apart in the source; their conditions may differ.
Legend:
[1] = biological target: Mouse Cat-S (Mus musculus, UniProt O70370); assay: Enzymatic isoform-selectivity assay, mouse Cat-S; format: biochemical; settings: read-out: apparent IC50, murine Cat-S
Protocol: RO5459072 was provided by F. Hoffmann-La Roche, Ltd., Basel, Switzerland. It is a competitive inhibitor of the active site of Cat-S and its nitrile function allows covalent reversible inhibition of Cat-S. The synthesis of RO5459072 has been described in WO 2010121918 and WO 2013068434. Recombinant cathepsins were produced in-house or were purchased from commercial vendors. Initial enzymatic assays to determine isoform-selectivity in vitro were performed as previously described, [23]. […] For this the Cat-S-dependent hydrolysis of the fluorogenic substrate Z-Phe-Arg-AMC (Sigma Aldrich) was followed at various inhibitor concentrations. The active fraction of Cat-S was detemined as 70% with a HPLC assay measuring modification of Cat-S with the covalent inhibitor LHVS. The buffer (100 mM potassium phosphate, 50 mM NaCl, 5 mM EDTA, 5 mM TCEP, pH 6) was thoroughly degassed prior to perfoming measurements to prevent oxidation of the catalytic cystein residue by dissolved oxygen. For the Ki-determination the substrate was employed at 10 µM = KM. All kinetic measurements were performad on a SFM-3000 stopped-flow instrument (Bio-Logic Science Instruments) and data were analyzed with GraphPad Prism v5.

[2] = Plasma exposure on food admix (HPLC-MS/MS) and spleen p10; format: in vivo, MRL-(Fas)lpr mice
Protocol: (§1) Four-week-old female MRL-(Fas)lpr mice were purchased from Harlan Winkelmann (Borchen, Germany) and kept under pathogen-free conditions in a 12 hour light and dark cycle with free access to food and water. All animal experiments were performed in accordance with the European protection laws of animal welfare, and with approval by the local government authorities Regierung von Oberbayern (reference number: 55.2.1-54-2532.2-11-12). At 11 or 15 weeks of age only mice with proteinuria (Albustix, Bayer AG, Leverkusen, Germany) were randomized into five different groups (n = 10) receiving different medicated diets: Three groups were fed with chow mixed with either 3, 10 or 30 mg/kg/day RO5459072, another group’s chow was mixed with 100 mg/kg/day mycophenolate mofetil (MMF), and one group received a standard diet (vehicle). The dose of MMF was chosen according to several studies reporting strong efficacy on SLE and lupus nephritis in MRL-(Fas)lpr mice[24]–[26]. […] At the age of 19 weeks all mice were sacrificed by cervical dislocation. Blood and urine samples were collected at different time points as indicated. In other experiments 7 week old female MRL-(Fas)lpr mice were randomized into three groups (n = 3) to receive a single intravenous injection of 10 µg sterile recombinant Cat-S and one group receiving vehicle (100 µl sterile PBS). One of the Cat-S groups was pretreated with 30 mg/kg/day RO5459072 starting one week prior to Cat-S injection; another group was pretreated with a total of four daily intra-peritoneal injections of the PAR-2 inhibitor GB83 (10 mg/kg).
Plasma samples were collected from mice during the feeding cycle on weeks 2, 4, 6 and 8 on a variable schedule of individuals after initiation of feeding with the drug-food admix on week 1. The levels in food were calculated to achieve doses of 3, 10 and 30 mg/kg/day. EDTA-treated plasma samples (29 per dose level) were frozen and subsequently analysed for the parent drug by HPLC-MS/MS. A column-trapping method (Phenonenex Luna C18 and Thermo Hypersil Gold C8 HPLC columns eluted with formic acid/water/acetonitrile mixtures on a Waters Acquity HPLC system) was used to separate the drug which was quantified using a Sciex API4000 MS/MS. The analytical range was 10–10,000 ng/ml and a stable label internal standard was used. […] All experiments were performed according to German animal protection laws and had been approved by the local government authorities.

[3] = tested on: MRL-(Fas)lpr mice; assay: Intravenous recombinant Cat-S injection: albuminuria and glomerular ultrastructure (TEM); format: in vivo; settings: 10 µg recombinant Cat-S i.v.
Protocol: as §1
Urinary albumin/creatinine ratios were determined using the Mouse Albumin ELISA Quantitation set (Bethyl Laboratories, Montgomery, TX) and the Creatinine FS kit (DiaSys Diagnostic Systems, Holzheim, Germany)[44]. BUN levels were determined in plasma samples using a Urea FS kit (DiaSys Diagnostic Systems). Mouse IgM, IgG and its isotypes IgG1, IgG2a and IgG2b plasma levels were measured using ELISA Sets (Bethyl Laboratories) at a plasma dilution of 1:1,000 to 1:100,000. Double-stranded DNA IgG and IgM antibodies were quantified as described. Briefly, 96 well Nunc-Immuno plates (Thermo Fisher Scientific, Roskilde, Denmark) were coated with poly-L-lysine (1:1 diluted with PBS) and incubated for two hours. […] Absorbance was measured at 450 nm using a Tecan Microplate Reader (Biotek, Winnoski, VT). Indirect immunofluorescence was used to quantify ANA in mouse plasma. […]
Mouse kidney tissue was fixed in 2% paraformaldehyde/2% glutaraldehyde and 0.1M sodium phosphate buffer (pH 7.4) for 24 hours and processed as described. Samples were analyzed with a 1200EX electron microscope (JEOL, Tokyo, Japan).

Cn1cc(-c2ccc(S(=O)(=O)[C@@H]3C[C@@H](C(=O)NC4(C#N)CC4)N(C(=O)C4(C(F)(F)F)CC4)C3)c(C(F)(F)F)c2)cn1 [RO5459072]
IC50 [1]: 0.3 nM | mean plasma concentration (SD) ([2]; 3 mg/kg/day food admix): 172 ± 58.4 ng/mL | mean plasma concentration (SD) ([2]; 10 mg/kg/day food admix): 648 ± 142 ng/mL | mean plasma concentration (SD) ([2]; 30 mg/kg/day food admix): 2660 ± 575 ng/mL | p10 fragment accumulation in the spleen ([2]; food admix, MRL-(Fas)lpr mice): robust p10 fragment accumulation | concentration at 8 weeks ([2]; mouse, plasma, oral, food admix 262 mg/kg of food, exposure dose 30 mg/kg, over 8 weeks, female MRL-(Fas)lpr mice, read-out: stable plasma levels): 400 to 600 ng/mL | Cat-S-induced albuminuria ([3]; 30 min, RO5459072 30 mg/kg/day pretreatment, GB83 10 mg/kg i.p.): completely prevented; also recorded: entirely blocked | Cat-S-induced glomerular endothelial cell injury (TEM) ([3]; 24 h): completely prevented

Source: publication PMC5459853, “Cathepsin S inhibition combines control of systemic and peripheral pathomechanisms of autoimmune tissue injury” (Scientific Reports, 2017)
